Data as given in US12037344B2, “NLRP3 modulators” (INNATE TUMOR IMMUNITY, INC., priority 2018, dated 2024).

Columns and labels:
TLR8 = molecular target: T1, TLR8 (Homo sapiens, UniProt Q9NR97); assay: In vitro human TLR8 binding reporter assay (HEK-Blue, NF-kB/AP1-inducible SEAP); format: cell-based; conditions: activity range class, read-out: TLR8 Agonist EC50
T1 construct: human HEK-Blue cells co-expressing a TLR7 or TLR8 gene
T1 sequence (Q9NR97 27-1041): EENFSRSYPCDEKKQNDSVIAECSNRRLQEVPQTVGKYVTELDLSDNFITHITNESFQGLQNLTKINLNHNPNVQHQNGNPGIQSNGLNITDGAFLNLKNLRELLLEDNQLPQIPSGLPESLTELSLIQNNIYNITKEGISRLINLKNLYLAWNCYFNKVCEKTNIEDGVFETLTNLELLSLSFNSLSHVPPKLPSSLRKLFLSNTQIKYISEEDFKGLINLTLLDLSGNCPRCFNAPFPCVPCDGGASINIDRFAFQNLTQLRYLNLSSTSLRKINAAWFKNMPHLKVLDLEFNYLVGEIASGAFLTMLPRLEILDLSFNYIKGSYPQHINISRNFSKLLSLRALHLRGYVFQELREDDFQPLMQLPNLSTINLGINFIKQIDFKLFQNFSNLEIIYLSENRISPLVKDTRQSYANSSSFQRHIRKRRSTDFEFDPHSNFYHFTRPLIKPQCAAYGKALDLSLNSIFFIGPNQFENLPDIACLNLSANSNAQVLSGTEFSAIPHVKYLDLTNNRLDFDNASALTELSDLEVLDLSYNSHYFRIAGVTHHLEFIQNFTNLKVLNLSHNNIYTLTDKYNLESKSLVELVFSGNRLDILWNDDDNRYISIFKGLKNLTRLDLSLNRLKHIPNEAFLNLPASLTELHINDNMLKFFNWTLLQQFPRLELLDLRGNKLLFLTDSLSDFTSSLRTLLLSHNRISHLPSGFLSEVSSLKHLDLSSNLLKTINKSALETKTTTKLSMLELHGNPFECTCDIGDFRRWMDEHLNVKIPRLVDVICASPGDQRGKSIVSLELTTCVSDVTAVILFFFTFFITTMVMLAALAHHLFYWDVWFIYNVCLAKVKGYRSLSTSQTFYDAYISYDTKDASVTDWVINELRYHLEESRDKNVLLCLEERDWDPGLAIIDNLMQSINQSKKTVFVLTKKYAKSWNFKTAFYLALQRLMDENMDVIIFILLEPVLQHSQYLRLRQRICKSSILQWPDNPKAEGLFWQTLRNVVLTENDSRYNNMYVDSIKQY
Summary of the method: (§1)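 EC50s come from NF-kB/AP1-driven SEAP secretion in HEK-Blue cells expressing TLR7 or TLR8, measured with Quanti-Blue after an 18 h compound incubation. Maximal response is defined by a 50 μM reference standard.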

TLR7 = molecular target: T2, TLR7 (Homo sapiens, UniProt Q9NYK1); assay: In vitro human TLR7 binding reporter assay (HEK-Blue, NF-kB/AP1-inducible SEAP); format: cell-based; conditions: activity range class, read-out: TLR7 Agonist EC50
T2 construct: human HEK-Blue cells co-expressing a TLR7 or TLR8 gene
T2 sequence (Q9NYK1 27-1049): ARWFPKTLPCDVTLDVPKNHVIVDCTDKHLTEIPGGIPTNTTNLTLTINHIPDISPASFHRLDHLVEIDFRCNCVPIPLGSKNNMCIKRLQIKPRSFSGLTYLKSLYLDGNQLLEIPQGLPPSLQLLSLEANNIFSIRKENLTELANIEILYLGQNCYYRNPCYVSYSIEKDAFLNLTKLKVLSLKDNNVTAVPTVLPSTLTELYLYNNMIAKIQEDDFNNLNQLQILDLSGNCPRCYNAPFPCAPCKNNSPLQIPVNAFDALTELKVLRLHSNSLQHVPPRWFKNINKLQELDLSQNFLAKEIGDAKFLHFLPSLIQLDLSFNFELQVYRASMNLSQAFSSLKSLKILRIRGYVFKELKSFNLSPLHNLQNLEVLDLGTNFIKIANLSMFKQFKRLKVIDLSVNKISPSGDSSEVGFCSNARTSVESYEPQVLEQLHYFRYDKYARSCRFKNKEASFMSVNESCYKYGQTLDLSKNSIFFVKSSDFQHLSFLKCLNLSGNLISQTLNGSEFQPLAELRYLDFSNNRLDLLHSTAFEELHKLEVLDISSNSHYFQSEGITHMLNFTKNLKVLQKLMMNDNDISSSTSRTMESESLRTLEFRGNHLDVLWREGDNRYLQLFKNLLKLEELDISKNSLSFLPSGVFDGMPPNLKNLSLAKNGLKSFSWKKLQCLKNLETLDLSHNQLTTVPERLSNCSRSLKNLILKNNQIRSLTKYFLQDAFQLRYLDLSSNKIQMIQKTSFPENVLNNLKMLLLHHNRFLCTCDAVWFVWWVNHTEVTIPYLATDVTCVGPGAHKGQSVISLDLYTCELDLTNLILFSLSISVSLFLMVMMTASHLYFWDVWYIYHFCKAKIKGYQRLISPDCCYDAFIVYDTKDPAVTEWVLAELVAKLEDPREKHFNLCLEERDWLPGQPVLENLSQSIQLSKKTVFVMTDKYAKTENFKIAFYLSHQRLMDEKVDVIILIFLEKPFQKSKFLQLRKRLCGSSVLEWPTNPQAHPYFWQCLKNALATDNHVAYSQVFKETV
Summary of the method: as §1

THP-1 cells = assay: Measurement of IL-1β production, hTRF protocol (second alternative procedure), THP-1 cells; format: cell-based, human; conditions: Homo sapiens, THP-1, IL-1β production, human; read-out: NLRP3 hILIB EC50
Summary of the method: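 Compounds, dilution series starting at a final 10 μM, were incubated 2 hours at 37° C with PMA-differentiated THP-1 cells (50 ng/ml overnight; 50,000 cells/well, 2% FBS RPMI). Released IL-1β quantified in supernatant by hTRF kit with 1:40 antibody dilution, 4° C overnight, 665/615 nm ratio.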

EC50 (TLR8) [µM]	EC50 (TLR7) [µM]	EC50 (THP-1 cells) [µM]	Structure (SMILES)
> 100	20 to 100	1.38	Nc1nc2cc(-c3cc[nH]n3)ccc2c2cn(CCNC(=O)c3ccccc3)nc12 [Example 36]
> 100	> 100	0.95	Nc1nc2cc(-c3cc[nH]n3)ccc2c2cn(CCNC(=O)c3ccncc3)nc12 [Example 37]
> 100	> 100	4.93	Nc1nc2cc(-c3cc[nH]n3)ccc2c2cn(CCNC(=O)c3cccnc3)nc12 [Example 38]
20 to 100	> 100	0.25	Nc1nc2cc(-c3cc[nH]n3)ccc2c2cn(CCNC(=O)c3ccccn3)nc12 [Example 39]
> 100	> 100	0.78	COc1ccc(C(=O)NCCn2cc3c(n2)c(N)nc2cc(-c4cc[nH]n4)ccc23)cc1 [Example 40]
> 100	> 100	0.8	Cc1ccc(C(=O)NCCn2cc3c(n2)c(N)nc2cc(-c4cc[nH]n4)ccc23)cc1 [Example 41]
> 100	> 100	0.67	Nc1nc2cc(-c3cc[nH]n3)ccc2c2cn(CCNC(=O)c3ccc(F)cc3)nc12 [Example 42]
> 100	> 100	0.46	Cc1nc(C(=O)NCCn2cc3c(n2)c(N)nc2cc(-c4cc[nH]n4)ccc23)cs1 [Example 43]
> 100	> 100	0.63	Nc1nc2cc(-c3cc[nH]n3)ccc2c2cn(CCNC(=O)c3cocn3)nc12 [Example 44]
> 100	> 100	1.41	Cc1cc(C(=O)NCCn2cc3c(n2)c(N)nc2cc(-c4cc[nH]n4)ccc23)nn1C [Example 45]
> 100	> 100	4.19	Cc1nc(C)c(C(=O)NCCn2cc3c(n2)c(N)nc2cc(-c4cc[nH]n4)ccc23)o1 [Example 46]
> 100	> 100	23.3	Nc1nc2cc(-c3cc[nH]n3)ccc2c2cn(CCNC(=O)C3CCOCC3)nc12 [Example 47]
> 100	> 100	5.2	CCC(=O)NCCn1cc2c(n1)c(N)nc1cc(-c3cc[nH]n3)ccc12 [Example 48]
20 to 100	> 100	0.61	Cc1cccc(C(=O)NCCn2cc3c(n2)c(N)nc2cc(-c4cc[nH]n4)ccc23)n1 [Example 49]
> 100	> 100	1.43	Cc1nccc(C(=O)NCCn2cc3c(n2)c(N)nc2cc(-c4cc[nH]n4)ccc23)n1 [Example 50]
> 100	> 100	18.8	COc1ccc(C(=O)NCCn2cc3c(n2)c(N)nc2cc(-c4cc[nH]n4)ccc23)nn1 [Example 51]
> 100	> 100	0.62	Cc1cnc(C(=O)NCCn2cc3c(n2)c(N)nc2cc(-c4cc[nH]n4)ccc23)cn1 [Example 52]
> 100	> 100	0.45	Nc1nc2cc(-c3cc[nH]n3)ccc2c2cn(CCNC(=O)c3ncccc3F)nc12 [Example 53]

EC50 (TLR8) [µM]	EC50 (TLR7) [µM]	EC50 (THP-1 cells) [µM]	Structure (SMILES)
> 100	20 to 100	0.19	Nc1nc2cc(-c3cc[nH]n3)ccc2c2cn(CCNC(=O)c3cc(F)ccn3)nc12 [Example 54]
20 to 100	20 to 100	0.39	Nc1nc2cc(-c3cc[nH]n3)ccc2c2cn(CCNC(=O)c3cccc(F)n3)nc12 [Example 55]
1 to 20	20 to 100	0.31	Cc1nc(C(=O)NCCn2cc3c(n2)c(N)nc2cc(-c4cc[nH]n4)ccc23)ccc1C(F)(F)F [Example 56]
> 100	> 100	2.21	Nc1nc2cc(-c3cc[nH]n3)ccc2c2cn(CCNC(=O)c3cc(CO)ccn3)nc12 [Example 57]
1 to 20	> 100	0.3	Nc1nc2cc(-c3cc[nH]n3)ccc2c2cn(CCNC(=O)c3ccc(OCc4ccccc4)cn3)nc12 [Example 58]
> 100	> 100	0.47	COc1ccc(C(=O)NCCn2cc3c(n2)c(N)nc2cc(-c4cc[nH]n4)ccc23)nc1 [Example 59]
> 100	> 100	0.27	Nc1nc2cc(-c3cc[nH]n3)ccc2c2cn(CCNC(=O)c3cccc(Cl)n3)nc12 [Example 60]
> 100	20 to 100	0.12	Nc1nc2cc(-c3cc[nH]n3)ccc2c2cn(CCNC(=O)c3cc(Cl)ccn3)nc12 [Example 61]
> 100	20 to 100	0.28	Nc1nc2cc(-c3cc[nH]n3)ccc2c2cn(CCNC(=O)c3ccc(C(F)(F)F)cn3)nc12 [Example 62]
> 100	> 100	1.61	COC(=O)c1cccc(C(=O)NCCn2cc3c(n2)c(N)nc2cc(-c4cc[nH]n4)ccc23)n1 [Example 63]
> 100	> 100	0.48	N#Cc1ccc(C(=O)NCCn2cc3c(n2)c(N)nc2cc(-c4cc[nH]n4)ccc23)nc1 [Example 64]
20 to 100	> 100	0.35	COc1cccc(C(=O)NCCn2cc3c(n2)c(N)nc2cc(-c4cc[nH]n4)ccc23)n1 [Example 65]
> 100	> 100	0.8	Nc1nc2cc(-c3cc[nH]n3)ccc2c2cn(CCNC(=O)c3ncc(F)cc3F)nc12 [Example 66]
> 100	> 100	0.38	Nc1nc2cc(-c3cc[nH]n3)ccc2c2cn(CCNC(=O)c3ccc(OC(F)(F)F)cn3)nc12 [Example 67]
20 to 100	> 100	0.37	Cc1nc(C(=O)NCCn2cc3c(n2)c(N)nc2cc(-c4cc[nH]n4)ccc23)c(C)o1 [Example 68]
> 100	> 100	0.7	Nc1nc2cc(-c3cc[nH]n3)ccc2c2cn(CCNC(=O)c3ccon3)nc12 [Example 69]
> 100	> 100	1.83	Nc1nc2cc(-c3cc[nH]n3)ccc2c2cn(CCNC(=O)c3ncccn3)nc12 [Example 70]
20 to 100	20 to 100	0.81	Cc1nc(C(=O)NCCn2cc3c(n2)c(N)nc2cc(-c4cc[nH]n4)ccc23)c(C(F)(F)F)o1 [Example 71]
